From PMC12136240 (Cell chemical biology, 2024)
pKd: −log10 of the molar value. Each block holds one compound with its values, some of them ahead of it.

What was measured:
[1] = system: zinc-finger (ZF) degrons fused to GFP in U2OS cells; assay: Off-target degradation of ZF degrons by flow cytometry; assay type: cell-based; conditions: 32 nM to 20 μM, 24 h
[2] = target: GSPT1-GFP in HEK293T cells (Homo sapiens, UniProt P15170); assay: Off-target degradation of GSPT1 by flow cytometry; assay type: cell-based; conditions: 24 h
[3] = target: endogenous BRD4 in MDA-MB-231 cells (Homo sapiens, UniProt O60885); assay type: cell-based; conditions: 5 h (Fig. 3b)
[4] = target: BRD4(BD1)-GFP in HEK293T cells (Homo sapiens, UniProt O60885+Q96SW2); assay: TR-FRET quantification of BRD4; conditions: for DC50: read-out: DC50(BD1), HEK293T BRD4(BD1)-GFP reporter cells
[5] = target: BRD4(BD2)-GFP in HEK293T cells (Homo sapiens, UniProt O60885+Q96SW2); assay: TR-FRET quantification of BRD4; conditions: for DC50: read-out: DC50(BD2), HEK293T BRD4(BD2)-GFP reporter cells, 4 h
His6-CRBN/DDB1 = His6-CRBN/DDB1 (Homo sapiens, UniProt Q96SW2); assay: TR-FRET ligand displacement assay; assay type: binding; conditions: for fold difference in KD between POM and POM-cN: monofunctional compounds, POM binds more tightly
BRD4 in HEK293T cells = BRD4 in HEK293T cells (Homo sapiens, UniProt O60885); assay: BRD4 degradation assay, western blot; assay type: cell-based; conditions: 4 h, 100 nM–10 μM dose-response
[6] = target: His6-CRBN/DDB1–GST-BRD4(BD1) ternary complex (Homo sapiens, UniProt O60885+Q96SW2); assay: TR-FRET off-rate measurement of the ternary complex, BD1; assay type: binding; conditions: BRD4 dissociation triggered by excess JQ1
BRD4 BD2 bromodomain = conditions: read-out: KD for BD2; cited from earlier work
BRD4 BD1 bromodomain = conditions: read-out: KD for BD1; cited from earlier work
[7] = system: His6-CRBN/DDB1 in the presence of GST-BRD4(BD2); assay: TR-FRET ternary complex / cooperativity assay with 1 μM BD2; assay type: binding; conditions: Alpha = KD,CRBN[binary]/KD,CRBN[ternary]
[8] = system: His6-CRBN/DDB1 in the presence of GST-BRD4(BD1); assay: TR-FRET ternary complex / cooperativity assay with 1 μM BD1; assay type: binding; conditions: Alpha = KD,CRBN[binary]/KD,CRBN[ternary]

Dmax, off-target degradation of GSPT1 [2]: ≤ 1%
Structure (SMILES): Cc1sc2c(c1C)C(c1ccc(Cl)cc1)=N[C@@H](CC(=O)Nc1ccc(OCCOCCOCCOCCNc3cccc4c3C(=O)N(C3CCC(=O)NC3=O)C4=O)cc1)c1nnc(C)n1-2 (stereo partly drawn) [ARV-825]
degradation of C2H2 zinc finger targets including IKZF3 and ZFP91, in words [1]: fast and rapid degradation

endogenous BRD4 degradation potency, in words [3]: one of the most potent BRD4 degraders
DC50 ([4]; 4 h): 41 nM
DC50 [5]: 78 nM
Structure (SMILES): Cc1sc2c(c1C)C(c1ccc(Cl)cc1)=N[C@@H](CC(=O)NCCCCCCCCC(=O)N[C@@H](C)C(=O)N[C@H]1CCC(=O)NC1=O)c1nnc(C)n1-2 [JQ1-AcQ]

pKd (His6-CRBN/DDB1; read-out: KD against His6-CRBN/DDB1 (binary), competition binding with Thal-FITC): > 7.00
Structure (SMILES): Cc1sc2c(c1C)C(c1ccc(Cl)cc1)=N[C@@H](CC(=O)NCCCCCCCCC(=O)N[C@@H](Cc1ccccc1)C(=O)N[C@H]1CC(=O)NC1=O)c1nnc(C)n1-2 [JQ1-FcN]
BRD4 degradation, western blot, in words (BRD4 in HEK293T cells): efficient degradation of BRD4 at a concentration of 100 nM

fold difference in KD between POM and POM-cN (His6-CRBN/DDB1): ~ 500 fold
Structure (SMILES): Nc1cccc2c1C(=O)N(C1CC(=O)NC1=O)C2=O (stereo not drawn) [POM-cN]

The remaining lines, values behind:

Structure (SMILES): Cc1sc2c(c1C)C(c1ccc(Cl)cc1)=N[C@@H](CC(=O)NCCCCCCCCC(=O)N[C@@H](Cc1ccc(O)cc1)C(=O)N[C@H]1CCC(=O)NC1=O)c1nnc(C)n1-2 [JQ1-YcQ]
stability of the ternary complex with BRD4(BD1), in words [6]: most stable and long-lived complexes
time to reach maximum level of degradation (Dmax), BRD4(BD1) ([4]; HEK293T BRD4(BD1)-GFP cells): 1.5 h
fold difference in DC50 between BD1 and BD2 ([4]; HEK293T reporter cells, 4 h, more potent on BD1): 5–10 fold
DC50 ([4]; 4 h): 103 nM
time to reach maximum level of degradation (Dmax), BRD4(BD2) ([5]; HEK293T BRD4(BD2)-GFP cells): 3 h
DC50 [5]: 513 nM

Structure (SMILES): Cc1sc2c(c1C)C(c1ccc(Cl)cc1)=N[C@@H](CC(=O)OC(C)(C)C)c1nnc(C)n1-2 [JQ1]
pKd (BRD4 BD2 bromodomain): 7.05
pKd (BRD4 BD1 bromodomain): 7.30

Structure (SMILES): Nc1cccc2c1C(=O)N(C1CCC(=O)NC1=O)C2=O (stereo not drawn) [POM, pomalidomide]
fold difference in KD between POM and POM-cN (His6-CRBN/DDB1): ~ 500 fold

Structure (SMILES): Cc1sc2c(c1C)C(c1ccc(Cl)cc1)=N[C@@H](CC(=O)NCCCCCCCCNC(=O)COc1cccc3c1C(=O)N(C1CCC(=O)NC1=O)C3=O)c1nnc(C)n1-2 (stereo partly drawn) [dBET6]
cooperativity with BRD4(BD2), in words [7]: negative cooperativity
cooperativity with BRD4(BD1), in words [8]: negative cooperativity
Dmax, off-target degradation of ZF degrons [1]: ≈ 6%
Dmax, off-target degradation of GSPT1 [2]: ≤ 9%
